{"source": "paper PMC6831628", "about": "“Steady-state activation of the high-affinity isoform of the α4β2δ GABAA receptor” (Scientific Reports, 2019)", "key": {"[1]": {"molecular_target": "T1, human α4β2δ GABAA receptors (Homo sapiens, UniProt P47870+P48169)", "T1 construct": "expressed in transfected cells; host or cells: Xenopus laevis oocytes injected with cRNA, 5:1:5 (α4:β2:δ)", "T1 sequence (P48169 36-554)": "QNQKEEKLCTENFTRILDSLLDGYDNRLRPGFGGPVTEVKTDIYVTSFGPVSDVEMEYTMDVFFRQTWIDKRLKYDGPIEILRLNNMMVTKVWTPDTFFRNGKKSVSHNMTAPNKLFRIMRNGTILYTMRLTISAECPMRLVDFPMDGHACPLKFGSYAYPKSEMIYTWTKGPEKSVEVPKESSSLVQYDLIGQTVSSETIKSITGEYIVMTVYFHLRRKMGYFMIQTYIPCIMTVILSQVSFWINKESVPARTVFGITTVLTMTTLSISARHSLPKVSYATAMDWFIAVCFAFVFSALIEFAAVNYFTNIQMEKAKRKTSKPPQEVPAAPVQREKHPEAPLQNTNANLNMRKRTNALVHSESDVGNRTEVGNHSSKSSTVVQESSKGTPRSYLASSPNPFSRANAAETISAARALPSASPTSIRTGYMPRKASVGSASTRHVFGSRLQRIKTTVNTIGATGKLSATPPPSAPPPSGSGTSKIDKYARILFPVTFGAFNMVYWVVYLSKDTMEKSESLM", "T1 sequence (P47870 25-512 limits assumed)": "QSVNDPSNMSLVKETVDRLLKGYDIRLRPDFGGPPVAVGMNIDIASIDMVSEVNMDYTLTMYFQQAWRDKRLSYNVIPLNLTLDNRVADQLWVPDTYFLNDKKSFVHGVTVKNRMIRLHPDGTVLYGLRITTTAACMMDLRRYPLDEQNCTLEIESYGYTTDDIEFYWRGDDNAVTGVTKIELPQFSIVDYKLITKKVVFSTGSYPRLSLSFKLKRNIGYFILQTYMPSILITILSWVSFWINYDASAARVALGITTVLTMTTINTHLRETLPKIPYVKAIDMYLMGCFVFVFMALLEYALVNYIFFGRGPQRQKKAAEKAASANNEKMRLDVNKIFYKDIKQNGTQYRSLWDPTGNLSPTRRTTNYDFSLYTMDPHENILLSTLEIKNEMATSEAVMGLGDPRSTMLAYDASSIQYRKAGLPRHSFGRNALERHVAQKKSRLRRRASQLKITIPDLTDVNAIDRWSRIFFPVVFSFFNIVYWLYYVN", "T1 sequence (O14764 25-452 partner)": "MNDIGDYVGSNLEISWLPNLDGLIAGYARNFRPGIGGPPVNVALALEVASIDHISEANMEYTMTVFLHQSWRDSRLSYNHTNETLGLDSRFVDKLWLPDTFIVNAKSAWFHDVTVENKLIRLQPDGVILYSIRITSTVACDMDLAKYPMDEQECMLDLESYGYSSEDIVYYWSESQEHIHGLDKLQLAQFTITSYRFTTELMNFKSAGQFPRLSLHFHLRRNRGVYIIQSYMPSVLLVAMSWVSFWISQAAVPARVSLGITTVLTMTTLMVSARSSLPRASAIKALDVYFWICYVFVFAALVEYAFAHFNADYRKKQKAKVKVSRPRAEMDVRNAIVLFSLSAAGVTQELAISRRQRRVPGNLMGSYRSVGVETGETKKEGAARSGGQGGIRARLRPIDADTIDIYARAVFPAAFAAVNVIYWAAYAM", "experiment": "two-electrode voltage clamp of α4β2δ GABAA receptors expressed in Xenopus laevis oocytes (RAD model analysis)", "format": "cell-based", "conditions": "for EC50: Hill equation; for EC50 / Hill coefficient: mean ± S.D.; for Q (=A/D), equilibrium between active and desensitized states: steady-state currents fitted to Eq. (2), K and c constrained to peak values; for maximal peak open probability (POpen,peak): theoretical/predicted maximum from L, c and N; for calculated steady-state POpen: Eq. (4); for contribution towards stabilization of the open state: N×RT×ln(c), GABA 2 sites, propofol 4 sites", "procedure": "The human α4β2δ GABAA receptors were expressed in Xenopus laevis oocytes. Harvesting of oocytes was conducted under the Guide for the Care and Use of Laboratory Animals as adopted and promulgated by the National Institutes of Health. The animal protocol was approved by the Animal Studies Committee of Washington University in St. Louis (Approval No. 20170071).\nThe cDNAs of individual subunits in the pcDNA3 vector were linearized with Xba I (NEB Labs, Ipswich, MA). The cRNAs were generated using mMessage mMachine (Ambion, Austin, TX). The oocytes were injected with a total of 11 ng cRNA per oocyte in a 5:1:5 (α4:β2:δ) ratio. Following injection, the oocytes were incubated in bath solution (96 mM NaCl, 2 mM KCl, 1.8 mM CaCl2, 1 mM MgCl2, and 5 mM HEPES; pH 7.4) plus supplements (2.5 mM Na pyruvate, 100 U/ml penicillin, 100 μg/ml streptomycin, and 50 μg/ml gentamycin) at 15 °C for 3–4 days prior to conducting electrophysiological recordings.\nThe recordings were conducted at room temperature using standard two-electrode voltage clamp. The pipets were filled with 3 M KCl. The oocytes were clamped at −60 mV. The chamber (RC-1Z, Warner Instruments, Hamden, CT) was perfused with bath solution (see above) at 5–8 ml/min. Solutions were gravity-applied from 30-ml glass syringes with glass luer slips via Teflon tubing, and switched manually.\nThe current responses were amplified with an Axoclamp 900A (Molecular Devices, Sunnyvale, CA) or OC-725C amplifier (Warner Instruments, Hamden, CT), digitized with a Digidata 1320 or 1200 series digitizer (Molecular Devices), and stored using pClamp (Molecular Devices).\nIn such cases, the number of cell provided is given as a range of cell numbers for each concentration point. […] The level of constitutive activity was determined by exposing the cells to 100–300 μM picrotoxin.\nThe current traces were analyzed using Clampfit (Molecular Devices) to determine the amplitudes of peak and steady-state responses. If steady-state (defined as ΔI < 2% during the last 20 s of agonist application) was not reached by the end of the agonist application, an estimate was made by exponential fitting of the current decay. Fitting was done using pClamp, to a single exponential or sums of up to three exponentials. The constant offset is reported as the steady-state response."}, "[2]": {"system": "receptors resulting from the expression of α4, β (β2 or β3), and δ subunits", "conditions": "cited from earlier work"}, "α1β2γ2L GABAA receptor": {"system": "α1β2γ2L GABAA receptor", "conditions": "cited from earlier work"}, "α4β3δ receptors": {"molecular_target": "α4β3δ receptors", "conditions": "oocytes, cited from earlier work"}, "[3]": {"molecular_target": "α1β2γ2L receptor with β2(Y205S) mutation (Homo sapiens, UniProt P14867+P47870, Y229S)", "sequence (P14867 28-456)": "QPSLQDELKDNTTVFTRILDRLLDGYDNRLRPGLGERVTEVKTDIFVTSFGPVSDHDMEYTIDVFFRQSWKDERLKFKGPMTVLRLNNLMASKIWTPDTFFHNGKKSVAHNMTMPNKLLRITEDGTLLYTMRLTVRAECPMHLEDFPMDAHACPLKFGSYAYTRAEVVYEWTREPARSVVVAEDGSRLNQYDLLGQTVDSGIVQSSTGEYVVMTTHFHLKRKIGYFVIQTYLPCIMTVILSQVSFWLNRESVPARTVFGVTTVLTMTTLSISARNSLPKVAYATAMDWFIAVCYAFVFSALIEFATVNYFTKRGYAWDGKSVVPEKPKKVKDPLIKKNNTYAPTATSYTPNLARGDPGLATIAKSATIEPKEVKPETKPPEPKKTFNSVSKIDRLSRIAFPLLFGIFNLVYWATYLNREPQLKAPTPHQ", "sequence (P47870 25-512 Y229S limits assumed)": "as the sequence (P47870 25-512 limits assumed) above, with Y205S counted along it", "sequence (P18507 40-475 partner)": "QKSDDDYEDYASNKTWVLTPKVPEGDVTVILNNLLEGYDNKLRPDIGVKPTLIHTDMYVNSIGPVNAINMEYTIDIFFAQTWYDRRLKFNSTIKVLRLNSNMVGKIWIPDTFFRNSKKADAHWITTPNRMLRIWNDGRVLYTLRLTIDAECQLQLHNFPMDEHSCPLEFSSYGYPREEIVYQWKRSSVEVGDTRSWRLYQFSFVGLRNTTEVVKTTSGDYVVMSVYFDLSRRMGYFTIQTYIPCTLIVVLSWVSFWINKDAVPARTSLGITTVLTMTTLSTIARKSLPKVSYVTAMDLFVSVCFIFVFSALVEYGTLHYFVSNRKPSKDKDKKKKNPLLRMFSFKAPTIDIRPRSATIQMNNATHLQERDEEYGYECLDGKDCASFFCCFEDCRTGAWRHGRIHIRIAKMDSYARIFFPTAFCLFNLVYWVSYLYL", "experiment": "activation of α1β2γ2L receptor carrying the β2(Y205S) mutation", "format": "cell-based", "conditions": "data not shown"}, "[4]": {"molecular_target": "T2, α4β2δ receptor with β2(Y205S) mutation (Homo sapiens, UniProt P47870+P48169, Y229S)", "T2 construct": "expressed in transfected cells; host or cells: Xenopus laevis oocytes (inferred from the Methods on α4β2δ)", "T2 sequence (P48169 36-554)": "as the sequence (P48169 36-554) above", "T2 sequence (P47870 25-512 Y229S limits assumed)": "as the sequence (P47870 25-512 limits assumed) above, with Y205S counted along it", "T2 sequence (O14764 25-452 partner)": "as the sequence (O14764 25-452 partner) above", "experiment": "activation of α4β2δ receptor carrying the β2(Y205S) mutation", "format": "cell-based", "conditions": "data not shown"}, "[5]": {"conditions": "peak currents fitted to Eq. (1)"}}, "note": "Where “and” joins values, the source holds several entries; their conditions need not be identical. Equal values may be shown once. Read-outs that look alike come from different tables or passages of the source."}
{"molecule": "CC(=O)[C@H]1CC[C@H]2[C@@H]3CC[C@H]4C[C@H](O)CC[C@]4(C)[C@H]3CC[C@]12C", "note": "[3α5αP, allopregnanolone]", "values": [{"measurement": "Kd", "setting": "[1]", "value": "0.21 ± 0.04", "unit": "µM"}, {"measurement": "EC50", "setting": "[1]; EC50, peak currents", "value": "0.23 ± 0.1", "unit": "µM"}, {"measurement": "cX, ratio of equilibrium dissociation constant of the open receptor to KX", "setting": "[1]; [5]", "value": "0.68 ± 0.01"}, {"measurement": "Hill coefficient", "setting": "[1]; peak currents", "value": "1.17 ± 0.30"}, {"measurement": "Q (=A/D), equilibrium between active and desensitized states", "setting": "[1]", "value": "0.89 ± 0.33 and 0.89"}, {"measurement": "maximal peak open probability (POpen,peak)", "setting": "[1]", "value": "~ 0.2"}, {"measurement": "maximal peak open probability (POpen,peak)", "setting": "[1]; listed as allopregnanolone", "value": 0.2}]}
{"molecule": "O=C(Nc1c(-c2cccs2)nc2ccccn12)c1ccc(Cl)cc1", "note": "[DS-2]", "values": [{"measurement": "effect of DS-2", "setting": "[2]; high-affinity isoform", "value": "directly activated"}, {"measurement": "effect of DS2", "setting": "[2]; low-affinity isoform", "value": "potentiated but not directly activated"}, {"measurement": "direct activation", "setting": "[1]; isoform investigated in the present study", "value": "directly activated"}]}
{"molecule": "NCCCC(=O)O", "note": "[GABA]", "values": [{"measurement": "stabilization energy from binding of two GABA molecules", "setting": "α1β2γ2L GABAA receptor", "value": "6.4 to 7.5", "unit": "kcal/mol"}, {"measurement": "calculated steady-state POpen", "setting": "[1]; 30 nM GABA", "value": 0.24}, {"measurement": "open probability (peak)", "setting": "[1]; 0.3 μM GABA, relative to PTX (0) and 10 μM GABA + 50 μM propofol (1)", "value": "0.35 ± 0.09"}, {"measurement": "contribution towards stabilization of the open state", "setting": "[1]", "value": 0.94, "unit": "kcal/mol"}, {"measurement": "Hill coefficient", "setting": "[1]; peak currents", "value": "0.80 ± 0.09"}, {"measurement": "steady-state open probability (POpen,S.S.)", "setting": "[1]; saturating GABA", "value": "~0.3"}, {"measurement": "Q (=A/D), equilibrium between active and desensitized states", "setting": "[1]", "value": "0.78 ± 0.08 and 0.78"}, {"measurement": "maximal peak open probability (POpen,peak)", "setting": "[1]", "value": "0.44 and 0.42 and 0.4 and ~ 0.4"}]}
{"molecule": "O=c1[nH]oc2c1CCNC2", "note": "[THIP]", "values": [{"measurement": "EC50", "setting": "α4β3δ receptors; read-out: high-affinity component of concentration-response curve", "value": "< 0.1", "unit": "µM"}, {"measurement": "EC50", "setting": "α4β3δ receptors; read-out: low-affinity component of concentration-response curve", "value": "> 10", "unit": "µM"}]}
{"molecule": "CC(C)c1cccc(C(C)C)c1O", "note": "[propofol]", "values": [{"measurement": "predicted POpen,S.S. after addition of propofol", "setting": "[1]; 1 μM propofol added to 30 nM GABA, 10 μM taurine, 30 nM 3α5αP, 0.1 μM PS", "value": 0.28}, {"measurement": "peak response to 0.3 μM GABA with coapplied propofol", "setting": "[1]; 1 μM propofol, peak response", "value": "151 ± 12 % of control"}, {"measurement": "steady-state response to 0.3 μM GABA with propofol", "setting": "[1]; 1 μM propofol, steady-state response", "value": "145 ± 14 % of control"}, {"measurement": "EC50", "setting": "[1]; EC50, peak currents", "value": "7.3 ± 2", "unit": "µM"}, {"measurement": "Kd", "setting": "[1]; KX, equilibrium dissociation constant of the resting receptor, peak currents fitted to Eq. (1), best-fit ± S.E. of the fit", "value": "55.1 µM and > 50 µM"}, {"measurement": "contribution towards stabilization of the open state", "setting": "[1]", "value": 4.3, "unit": "kcal/mol"}, {"measurement": "cX, ratio of equilibrium dissociation constant of the open receptor to KX", "setting": "[1]; [5]", "value": "0.16 ± 0.01"}, {"measurement": "Hill coefficient", "setting": "[1]; peak currents", "value": "2.17 ± 0.65"}, {"measurement": "Q (=A/D), equilibrium between active and desensitized states", "setting": "[1]", "value": "1.29 ± 0.14 and 1.29"}, {"measurement": "maximal peak open probability (POpen,peak)", "setting": "[1]", "value": "0.99 and ~ 0.99"}]}
{"molecule": "NCCS(=O)(=O)O", "note": "[taurine, 2-aminoethanesulfonic acid]", "values": [{"measurement": "activation by taurine", "setting": "[3]", "value": "< 0.2 % of the response to GABA + propofol"}, {"measurement": "calculated steady-state POpen", "setting": "[1]; 10 μM taurine", "value": 0.21}, {"measurement": "Q (=A/D), calculated value", "setting": "[1]; calculated from steady-state open probability with 1 mM taurine", "value": 0.52}, {"measurement": "steady-state open probability", "setting": "[1]; long (190–410 s) applications of 1 mM taurine", "value": "0.23 ± 0.04"}, {"measurement": "cX, ratio of equilibrium dissociation constant of the open receptor to KX", "setting": "[1]; [5]", "value": "0.47 ± 0.02"}, {"measurement": "Kd", "setting": "[1]; peak currents fitted to Eq. (1), best-fit ± S.E. of the fit, read-out: KX, equilibrium dissociation constant of the resting receptor", "value": "10 ± 2.1", "unit": "µM"}, {"measurement": "EC50", "setting": "[1]; peak currents, read-out: EC50", "value": "9.8 µM and 10 µM"}, {"measurement": "Hill coefficient", "setting": "[1]; peak currents", "value": "0.70 ± 0.08"}, {"measurement": "maximal peak open probability (POpen,peak)", "setting": "[1]", "value": "0.44 and 0.4 and ~ 0.4"}, {"measurement": "activation by taurine", "setting": "[4]", "value": "< 0.2 % of the response to GABA + propofol"}]}
{"molecule": "pregnenolone sulfate [PS]", "values": [{"measurement": "dPS", "setting": "α1β2γ2L GABAA receptor", "value": 0.11}, {"measurement": "Kd", "setting": "α1β2γ2L GABAA receptor; read-out: KPS", "value": 1.9, "unit": "µM"}, {"measurement": "dPS, ratio of equilibrium dissociation constant of the desensitized receptor to KPS", "setting": "[1]; fit to Eq. (3), 0.3 μM GABA, 1 site", "value": "0.14 ± 0.02"}, {"measurement": "high concentration asymptote", "setting": "[1]; steady-state current elicited by 0.3 μM GABA", "value": "50 ± 4 % of control"}]}
